The values that follow come from patent publication EP0728482A2, “Use of hcp specific compounds to enhance erythropoiesis” (SMITHKLINE BEECHAM CORPORATION, priority 1995, dated 1996).

The target in one assay is T1, human src SH2 domain (Homo sapiens, UniProt P12931).
T1 construct: made in house; host or cells: E. coli AR120
Briefly: ELISA-based SH2 domain / pY peptide binding assay, src SH2 domain. Particulars: for Ki: Ki calculated from IC50 with the expanded equation; for IC50: inhibition of binding of 0.1 uM biotinylated pY peptide to SH2 domain fusion protein. As for the experimental part:
(§1) The inhibitory activity of compounds at the different human SH2 domains was determined in vitro using SH2 domains expressed as fusion proteins in E. coli. The SH2 domains used herein were the human forms of the src SH2 domain, Grb2 SH2 domain, lck SH2 domain, fyn SH2 domain, SH-PTP2 SH2 domain, p85 SH2 domain and hcp SH2 domain.
The fusion proteins containing the src, lck and hcp SH2 domains were expressed as the general sequence: DET1-DET2-spacer-ek-SH2, where DET1, DET2, spacer, ek and SH2 are as described below. DET1 ("defined epitope tag 1") (SEQ ID NO: 1) is an 11 amino acid sequence found in the Human Immunodeficiency Virus Type 1 (HIV-1) envelope protein gp120 (or gp160). Monoclonal antibodies to various epitopes of HIV-1 gp120 (or gp 160) are known in the art, see, for example U.S. Patent 5,166,050. One preferred example is monoclonal antibody 178.1 (see, e.g., Thiriart et al., J. Immunol., 143:1832-1836 (1989)), which was prepared by immunization of mice with a yeast-expressed HIV-1 gp160 molecule from strain BH10 (Ratner et al., Nature, 313:277-284 (1985)). This tag was used for detection of expression (by Western blot), for purification of the protein (by affinity chromatography), and for configuring assays in which the fusion protein was captured or immobilized using the 178.1 antibody. DET2 is a hexa-histidine sequence tag (SEQ ID NO: 2) which binds to nickel-containing resins and was used for purification purposes. Spacer (SEQ ID NO: 3) was utilized to design a BamH1 restriction site at the indicated position of the construct. The term -ek-refers to a recognition sequence (SEQ ID NO: 4) for the enterokinase protease which provides for the optional removal of the tags from the SH2 domain, thus producing an SH2 domain that contains no extraneous amino acids. SH2 domains which contain no extraneous amino acids are preferable to tagged protein for crystallography studies. SH2 refers to the SH2 domains of different proteins.
Procedure 2: Cloning, expression and purification of human src SH2 domain containing tags and an enterokinase proteolytic cleavage site (DET1-DET2-spacer-ek-src SH2).
A DNA sequence encoding protein ek-src SH2 was PCR amplified from a cDNA clone containing the human src gene (c-src SH2 DNA sequence identical to that described in Takeya,T. and Hanafusa, H, 1983 Cell 32:881-890) using the following primers: [formula]
The PCR product was digested with BamHI and XbaI, followed by isolation of the digested fragment on an agarose gel. The fragment was ligated into BamHI-XbaI-digested expression vector containing the tagged chicken src gene DET1-DET2-spacer-SH2 described in Procedure 1 above. In that vector, the BamHI site is located between the coding regions for DET2 and SH2, and the XbaI site is located after the 3' end of the SH2 coding region. The ligation reaction was used to transform E. coli MM294cI^+. The construct DET1-DET2-spacer-ek-src SH2 was confirmed by DNA sequencing (SEQ ID NO: 5) and induced in E. coli strain AR120 as described in Procedure 1 above. A Coomassie-Blue-stained, Western-blot-positive induced protein band with an apparent molecular weight of 16,000 was observed after nalidixic acid induction.
Cells were lysed at neutral pH by sonication in the presance of lysozyme. After centrifugation, the soluble extract was chromatographed on a Ni^++NTA column. After washing the column with equilibration buffer (Tris buffer pH 8 containing 0.5 M Nacl) and the same buffer containing 15 mM imidazole, the protein was eluted in highly purified form with 25 mM imidazole in equilibration buffer.
The binding assays for the SH2 domains and pY peptides were performed in an ELISA-based 96 well plate assay. […]

The next assay deals with B6D2F1 female mice. Description: murine reticulocyte assay (Hayakawa assay). The assay is classed as in vivo. The following applies: oral gavage, once a day for 7 days. As for the experimental part:
The efficacy of hcp SH2 domain antagonist to enhance erythropoiesis is related to their ability to increase reticulocyte production in the murine reticulocyte assay (Hayakawa T, et al. Biologicals 20; 253 (1992) and Hayakawa T, et al. Biologicals 20; 243 (1992), (collectively hereinafter 'Hayakawa')).
L-3,5-Dibromo-3'-(6-oxo-3(1H)-pyridazinylmethyl)-thyronine (Compound 2) was tested for its in vivo potency to increase reticulocyte production in the Hayakawa assay.
To perform the experiment a total of 12 B6D2F1 female mice were used. The animals were administered Compound 2 (the compound was dissolved in water, pH 11, and administered by oral gavage) once a day for 7 days. At the end of the treatment period blood was collected from the animals and reticulocyte count was determined by known methods. (Hayakawa)

The subject of the next assay is human hcp SH2 domain. Briefly: ELISA-based SH2 domain / pY peptide binding assay, hcp SH2 domain. Particulars: hcp SH2 domain versus src, lck, fyn, SH-PTP2, p85, Grb2 SH2 domains. As for the experimental part: as §1
The fusion proteins containing the src, lck and hcp SH2 domains were expressed as the general sequence: DET1-DET2-spacer-ek-SH2, where DET1, DET2, spacer, ek and SH2 are as described below. DET1 ("defined epitope tag 1") (SEQ ID NO: 1) is an 11 amino acid sequence found in the Human Immunodeficiency Virus Type 1 (HIV-1) envelope protein gp120 (or gp160). Monoclonal antibodies to various epitopes of HIV-1 gp120 (or gp 160) are known in the art, see, for example U.S. Patent 5,166,050. One preferred example is monoclonal antibody 178.1 (see, e.g., Thiriart et al., J. Immunol., 143:1832-1836 (1989)), which was prepared by immunization of mice with a yeast-expressed HIV-1 gp160 molecule from strain BH10 (Ratner et al., Nature, 313:277-284 (1985)). This tag was used for detection of expression (by Western blot), for purification of the protein (by affinity chromatography), and for configuring assays in which the fusion protein was captured or immobilized using the 178.1 antibody. […]
(An ELISA detects its analyte on a solid surface through an enzyme-linked reagent.)

“Also recorded” adds a separate entry of the source.

The Ki is a dissociation constant, usually derived from enzyme kinetics or from competition with a known ligand. A word on the IC50: it is the point on the concentration scale where inhibition reaches its midpoint. As for “4-acetamido-benzamido-trans-4-methyl-cyclohexyl-N-1-(amino-R-2-(methoxy methyl)-pyrrolidine) carboxamide [Compound 8]”, on human src SH2 domain, the Ki is 12 µM and the IC50 was 16 µM.
In the same order, the values of `Cc1nnc(SCC2=C(C(=O)O)N3C(=O)[C@@H](NC(=O)C(N)c4ccc(C(=O)O)cc4)[C@H]3SC2)s1` (stereo partly drawn) [Compound 1, 7-[D,L-α-Amino-α-(4-carboxyphenyl)acetamido]-3-[2-(5-methyl-1,3,4-thiadiazolyl)thiomethyl]Δ^3-cephem-4-carboxylic Acid] are 7 µM and 6 µM.
Turning to `N[C@@H](Cc1cc(Br)c(Oc2ccc(O)c(Cc3ccc(=O)[nH]n3)c2)c(Br)c1)C(=O)O` [Compound 2, L-3,5-Dibromo-3'-(6-oxo-3(1H)-pyridazinylmethyl)-thyronine], the results for the Reticulocytes in the assay on B6D2F1 female mice (200 mg/kg/day), in the assay with B6D2F1 female mice (400 mg/kg/day) and with B6D2F1 female mice (800 mg/kg/day) were 321.0 ± 46.3 10^9/L, 310.8 ± 24.8 10^9/L and 375.2 ± 51.6 10^9/L, respectively.
With `Cc1nc2sc3c(c2c2[nH][nH]c(=O)c12)CCC1(C3)OCCO1` [Compound 3, 8,8-Ethylenedioxy-2,3,7,8,9,10-hexahydro-4-methyl-1H-benzo[b]thieno[2,3-b]pyrazolo[3,4-d]pyridin-3-one], on human src SH2 domain, the Ki was 6 µM and the IC50 worked out at 16.1 µM.
For the molecule `Cc1ccc(C(=O)c2ccc(C(=O)c3ccc(CC=O)cc3)cc2)cc1` [Compound 4, 4-[4-(4-Methylbenzoyl)benzoyl]phenylacetaldehyde], on human src SH2 domain, the Ki was 40 µM and the IC50 is 40 µM.
Consider `Cc1nc2sc3c(c2c2c1c(=O)[nH]n2C)CCC1(C3)OCCO1` [Compound 5, 1,4-Dimethyl-8,8-ethylenedioxy-2,3,7,8,9,10-hexahydro-1H-benzo[b]thieno[2,3-b]pyrazolo[3,4-d]pyridin-3-one], for which, on human src SH2 domain, the Ki was 28 µM and the 50% inhibitory concentration (IC50) came out at 63 µM. Further, in the assay on human hcp SH2 domain, the “binding affinities/inhibitory concentrations at the hcp SH2 domain than at other SH2 domains” value is on record as “greater than fifty-fold higher; also recorded: greater than one hundred-fold higher”.
As for `CCCNC(=O)[C@H]1CC[C@H](CNC(=O)/C=C/c2ccc(C=O)cc2)CC1` [Compound 9, 4-formyl-E-cinnamido-trans-4-methyl-cyclohexyl-N-(propyl) carboxamide], at human src SH2 domain, the Ki was 55 µM and the IC50 worked out at 131 µM.
